Data from PubChem BioAssay AID179 (DTP/NCI, 2004).
The source made the active and inactive calls.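 The calls were made as follows: active = compounds giving half or more protection of infected cells from virus-caused growth loss, again on retest; inactive = the rest.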

Test system: CEM cells HIV-1 protection, formazan growth assay
Experiment: NCI AIDS Antiviral Assay
Conditions: for IC50: measured here: growth of uninfected CEM cells
Summary of the method: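 Human CEM cells, uninfected and HIV-1-infected, received five drug concentrations, and growth was read by soluble formazan assay. Compounds giving at least 50% protection were retested; reproducible 100% protection defined confirmed active.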

Structure (SMILES) | EC50 [µM] | IC50 [µM] | outcome
[C-]#[O+].[C-]#[O+].[C-]#[O+].[Re].c1ccc2c(c1)[cH-]c1ccccc12 | > 1.66 | > 1.66 | 
C=C1[C@H](O)[C@@]2(C(=O)N1OC)/C(=C/CC)C=CC(=O)C2O (stereo not given in full) | > 891 | 331 | 
CC(C)CNC(=O)Cn1c2c(c3ccccc31)CCCC2 | > 200 | 81.3 | 
COC1CC2C3/C(=N/Nc4ccc([N+](=O)[O-])cc4[N+](=O)[O-])CCC2(C)C3C1 (stereo not given) |  |  | inactive
Ic1nc(-c2ccccc2)[nH]c1I |  |  | inactive
Cc1ccc(NC(=O)C(=O)Cc2nc3ccccc3o2)c(C)c1 | > 12.3 | > 12.3 | 
CC(NC(=O)OCC[P+](c1ccccc1)(c1ccccc1)c1ccccc1)C(=O)O (stereo not given) | > 200 | 5.89 | 
O=C(O)c1cc(O)c(Br)c(O)c1N=Nc1ccc(/C=C/c2ccc(N=Nc3c(C(=O)O)cc(O)c(Br)c3O)cc2S(=O)(=O)O)c(S(=O)(=O)O)c1 | 166 | > 200 | 
C=C(Cl)c1c(OC)cccc1OCc1ccccc1 | > 200 | 97.7 | 
CC(=O)c1cc2cc3c4c(c2oc1=O)CCCN4CCC3 | > 25.7 | > 25.7 | 
Cc1cc(Cl)ccc1N=C1NC(=O)C(CC(=O)Nc2cccc(Cl)c2)S1 (stereo not given) |  |  | inactive
CCN(CC)CCNc1ccc(CO)c2oc3ccc(O)cc3c(=O)c12 | > 191 | 1.32 | 
C[C@H]1OCN(C(=O)c2cc3ccccc3cc2SSc2cc3ccccc3cc2C(=O)N2CO[C@H](C)[C@H]2C(=O)O)[C@@H]1C(=O)O | > 100 | > 100 | 
O=C(O)/C(Cl)=C(Cl)/C=N/NC(=O)c1cc2ccccc2cc1O | > 102 | 5.75 | 
NC(N)=NS(=O)(=O)c1ccc(NC(=O)c2cccc3c(Nc4ccc(S(N)(=O)=O)cc4)c4ccccc4nc23)cc1 | > 43.7 | > 43.7 | 
CC(=O)C1C(=O)C(=O)N(c2ccc([N+](=O)[O-])cc2Cl)C1=O (stereo not given) | > 200 | 95.5 | 
COc1cc2c(c3oc(C)c(C)c(=O)c13)C=CC(C)(C)O2 | > 200 | 66.1 | 
CCOP(=O)(OCC)C(Nc1ccc(C(=O)O)cc1)c1ccc(C(Nc2ccc(C(=O)O)cc2)P(=O)(OCC)OCC)cc1 (stereo not given) | > 200 | > 200 | 
CCCCCCCCCCCCCCCCOCC(CP(=O)([O-])OCC[n+]1ccccc1)OC (stereo not given) | > 5.01 | 2.51 | 
Cc1noc2cccc(O)c12 |  |  | inactive
Cc1cc(S(=O)(=O)Nc2n[nH]c(N)n2)c(S)cc1Cl | > 200 | > 200 | 
O=[N+]([O-])c1cccc2nccc(NCC(O)CO)c12 (stereo not given) | > 200 | 6.17 | 

Structure (SMILES) | EC50 [µM] | IC50 [µM] | outcome
CCOC(=O)CCc1c(C)c2c(OC)cc(OC)cc2oc1=O |  |  | inactive
COC(=O)C1CCC(=O)N1C(c1ccc(OC)cc1)c1ccc2c(c1)OCO2 (stereo not given) | > 200 | 11.5 | 
Cc1nc(N)nn1C1OCC(O)C(O)C1O (stereo not given) |  |  | inactive
N=C(N)SC12CC3CC(CC(C3)C1)C2 | > 200 | 138 | 
CC(C)N(C(C)C)[PH+]1O[PH+](N(C(C)C)C(C)C)O[PH+](N(C(C)C)C(C)C)O[PH+](N(C(C)C)C(C)C)O1.[C-]#[O+].[C-]#[O+].[C-]#[O+].[C-]#[O+].[C-]#[O+].[C-]#[O+].[C-]#[O+].[C-]#[O+].[Mo].[Mo] (stereo not given) | > 35.5 | > 35.5 | 
CCOc1cnc([C@H]2CCC3[C@@H]4CC=C5C[C@@H](O)CC[C@]5(C)C4CC[C@@]32C)s1 (stereo not given in full) | > 61.7 | > 61.7 | 
Cn1c(-c2ccccc2)cc(-c2ccsc2)c1-c1ccsc1 | > 200 | 158 | 
O=C1c2cscc2C(=O)c2cscc21 | > 2 | 0.339 | 
COc1cccc2c1C(=O)C1=C(C2=O)C(O)CC(C)(C)O1 (stereo not given) | > 200 | 33.9 | 
O=c1oc2ccccc2c(O)c1C(c1ccc(/C=C/c2ccccc2)cc1)c1c(O)c2ccccc2oc1=O | > 200 | 15.1 | 
NC(=O)C12C(=O)NC(=O)C1(C(=O)O)C21CCCC1 (stereo not given) | > 200 | > 200 | 
O=C1CCCC/C1=C1/SC(=Nc2ccccc2)C(=Nc2ccccc2)N1c1ccccc1 | > 200 | > 200 | 
CCOC(=O)c1c(-c2ccc(Cl)cc2)c(C#N)c(=S)n(C2OC(COC(C)=O)C(OC(C)=O)C(OC(C)=O)C2OC(C)=O)c1C (stereo not given) | > 200 | 36.3 | 
CC(C)(C)C(=O)OCC1OC(N=[N+]=[N-])C(OC(=O)C(C)(C)C)C(OC(=O)C(C)(C)C)C1OC(=O)C(C)(C)C (stereo not given) | > 200 | > 200 | 
COc1ccc(C=C2C(=O)NC(=O)NC2=O)cc1OCc1ccccc1 | > 200 | 24.5 | 
CC(C)(C)C1CCC2(CC1)CC(=O)N(N1CCCCCC1)C(=O)C2 | > 200 | 55 | 
Cc1nc(-n2nc(-c3ccccc3)cc2-c2ccccc2)sc1C(/C=C\c1ccc([N+](=O)[O-])cc1)=N/NC(=S)NN | > 32.4 | > 32.4 | 
CCOC(=O)c1c(C)c(N=O)c2ccccn12 | > 200 | 5.62 | 
COC(OC)C1OCC(n2cc(F)c(=O)[nH]c2=O)C1O (stereo not given) | > 200 | > 200 | 
CC#CC(O)(C(=O)OC1CC(C)N(C)C(C)(C)C1)C1CCCC1 (stereo not given) | > 200 | > 200 | 
O=C(O)CC1Sc2ccccc2NC1=O (stereo not given) | > 1120 | > 1120 | 
